This is an account of results in patent publication US7638639B2, “Substituted pyrrolidine and related compounds” (Theravance, Inc., priority 2003, dated 2009).

Molecules are shown by their SMILES.

Assay [1] concerns methacholine-induced decrease in mean arterial pressure. The assay is described as follows: Methacholine-induced depressor responses in conscious guinea pigs. The class given is in vivo. The settings on record: guinea pig, inhalation. The source says: Methacholine-Induced Depressor Responses in Conscious Guinea Pigs
Healthy, adult, male Sprague-Dawley guinea pigs (Harlan, Indianapolis, Ind.), weighing between 200 and 300 g were used in these studies. Under isoflurane anesthesia (to effect), animals were instrumented with common carotid artery and jugular vein catheters (PE-50 tubing). The catheters were exteriorized utilizing a subcutaneous tunnel to the subscapular area. All surgical incisions were sutured with 4-0 Ethicon Silk and the catheters locked with heparin (1000 units/mL). Each animal was administered saline (3 mL, SC) at the end of surgery as well as buprenorphine (0.05 mg/kg, IM). Animals were allowed to recover on a heating pad before being returned to their holding rooms.
Approximately 18 to 20 hours following surgery, the animals were weighed and the carotid artery catheter on each animal was connected to a transducer for recording arterial pressure. Arterial pressure and heart rate was recorded using a Biopac MP-100 Acquisition System. Animals were allowed to acclimate and stabilize for a period of 20 minutes.
Each animal was challenged with methylcholine (MCh) (0.3 mg/kg, iv) administer through the jugular venous line and the cardiovascular response was monitored for 10 minutes. […] At 1.5 and 24 h post-dosing, the animals were re-challenged with MCh (0.3 mg/kg, iv) and the hemodynamic response was determined. […]

The target in the next assay is T1, hM2 receptor (Homo sapiens, UniProt P08172).
T1 construct: expressed in transfected cells
T1 sequence (P08172 1-466): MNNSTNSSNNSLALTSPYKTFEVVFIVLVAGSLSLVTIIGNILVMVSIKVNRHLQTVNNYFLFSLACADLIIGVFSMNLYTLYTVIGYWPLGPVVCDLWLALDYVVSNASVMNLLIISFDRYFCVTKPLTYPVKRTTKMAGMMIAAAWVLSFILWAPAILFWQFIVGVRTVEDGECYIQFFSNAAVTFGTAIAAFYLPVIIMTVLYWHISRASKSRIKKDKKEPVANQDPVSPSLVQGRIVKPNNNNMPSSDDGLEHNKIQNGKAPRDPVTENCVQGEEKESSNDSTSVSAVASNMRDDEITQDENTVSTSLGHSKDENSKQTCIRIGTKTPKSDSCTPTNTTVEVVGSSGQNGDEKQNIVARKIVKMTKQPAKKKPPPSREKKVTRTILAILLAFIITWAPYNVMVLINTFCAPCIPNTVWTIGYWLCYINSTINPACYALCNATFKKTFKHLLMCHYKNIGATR
The assay is described as follows: Blockade of agonist-mediated inhibition of cAMP accumulation. The format is cell-based. Particulars: CHO-K1 cells expressing the hM2 receptor; read-out: Ki for blockade of oxotremorine-inhibition of forskolin-mediated cAMP accumulation. As for the experimental part: A. Blockade of Agonist-Mediated Inhibition of cAMP Accumulation
In this assay, the functional potency of a test compound was determined by measuring the ability of the test compound to block oxotremorine-inhibition of forskolin-mediated cAMP accumulation in CHO-K^1 cells expressing the hM2 receptor.
cAMP assays were performed in a radioimmunoassay format using the Flashplate Adenylyl Cyclase Activation Assay System with ^125I-cAMP (NEN SMP004B, PerkinElmer Life Sciences Inc., Boston, Mass.), according to the manufacturer's instructions.
Cells were rinsed once with dPBS and lifted with […] (0.05% trypsin/[…]) as described in the Cell Culture and Membrane Preparation section above. […] The cell pellet was then re-suspended in 10 mL dPBS, and the cells were counted with a Coulter Z1 Dual Particle Counter (Beckman Coulter, Fullerton, Calif.). […]
Reactions were incubated for 10 minutes at 37° C. and stopped by addition of 100 μL ice-cold detection buffer. Plates were sealed, incubated overnight at room temperature and counted the next morning on a PerkinElmer TopCount liquid scintillation counter (PerkinElmer Inc., Wellesley, Mass.). The amount of cAMP produced (pmol/well) was calculated based on the counts observed for the samples and cAMP standards, as described in the manufacturer's user manual. […]
(In general: cAMP levels reflect the balance of adenylyl cyclase and phosphodiesterase activity.)

Usually Ki stands for the dissociation constant of the complex between target and ligand, obtained from inhibition or displacement. For the compound `CNCCCCCCCCN1CC[C@@H](C(C(N)=O)(c2ccccc2)c2ccccc2)C1` [Example 1, 2-[(S)-1-(8-Methylaminooctyl)pyrrolidin-3-yl]-2,2-diphenylacetamide], the “apparent lung-selectivity index (anti-depressor ID50 / bronchoprotective ID50)” value in assay [1] is on record as “greater than 5”. At hM2 receptor, the Ki was less than 5 nM.
